Test results from patent US20080262266A1, “Method for the Production of Xylyendiamine” (BASF SE, priority 2005, published 2008).
Where two headings read alike, the source gives them in different places.

Assays:
[1] = 70° C.; cited from earlier work
[2] = solubility of isophthalonitrile (IPN) in organic solvents; type: physicochemical; settings: 60° C.

## N#Cc1cccc(C#N)c1 [IPN, 1,3-dicyanobenzene]
[1]
  solubility of IPN in MXDA: about 20 % by weight
[2]; MXDA
  solubility of IPN in MXDA: 15 % by weight
[2]; THF
  solubility of IPN in THF: ~19 % by weight
[2]; methanol
  solubility of IPN in methanol: 18 % by weight
